Test results from US20140371189A1, “TESTOSTERONE REPLACEMENT THERAPY IN ANIMALS, INCLUDING DOGS” (David Bieber Consulting, LLC, priority 2013, published 2014).

Columns and labels:
[1] = test system: dogs compromised by osteoarthritis, intervertebral disc disease, hip dysplasia, weakness due to old age, muscle atrophy and joint pain; assay: Example 1: testosterone replacement therapy study, medical record review; type: in vivo, dog
Source text: In order to treat dogs, horses, or other animals in need of testosterone replacement therapy, the following protocol should be followed: • (1) Obtain information about potential patient via a clinical intake process and questionnaire such as the example shown in the drawing figure; • (2) Conduct a general physical examination on potential patient; • (3) Conduct laboratory tests on potential patient's blood and/or urine, including measuring initial testosterone levels in the patient's blood. This can be total testosterone or free testosterone. […]
A study was undertaken to determine if dogs compromised by osteoarthritis (also known as degenerative joint disease), intervertebral disc disease, hip dysplasia, weakness due to old age, muscle atrophy and joint pain experienced improvements following testosterone replacement therapy. […] Data from the medical records were analyzed to determine the efficacy of the treatment protocol. Data recorded from medical records included breed, date of birth, age, sex, neutered vs. intact, baseline testosterone level, date of testosterone injections and improvement status (improved vs. no noticeable improvement). […]
Following informed assent by each dog owner, each dog underwent an initial clinical exam including a detailed health history, list of medications, a CBC, urinalysis and baseline testosterone level were conducted. […] Changes in mobility, pain level/medications needed, energy and muscle tone were assessed and testosterone dosage was adjusted if needed prior to each injection. Follow-up testosterone levels were measured one week after the initial injection and on an as needed basis throughout the course of treatment. […]

[2] = Example 2: blood testosterone level during testosterone therapy; details: for testosterone level: dog Blackjack
Procedure: (§1) A 28.7 pound, 12 year and two month-old neutered male Cocker Spaniel named Blackjack was evaluated because of his owner's concerns about declines in his level of mobility and arthritis.
(§2) During month one of the protocol, Blackjack was screened for treatment by conducting a thorough physical exam, complete blood chemistry, urinalysis, and testosterone level. […] An initial injection of testosterone IM was administered and Blackjack began treatment with Previcoxx 57 mg once per day. A follow-up was conducted by phone one day after the initial injection and again at two weeks post injection.
(§3) Previcoxx was discontinued and Metacam was prescribed. During a follow-up appointment Blackjack received an injection of testosterone IM. […] It was decided to increase the dosage of testosterone.
At this time a regular annual exam was conducted.

[3] = test system: neutered male Cocker Spaniel with declines in mobility and arthritis; assay: Example 2: clinical outcome and side effects in a neutered male Cocker Spaniel
Procedure: as §1, §2, §3
Radiographs were taken to rule out degenerative joint disease and neoplasia. During month three, the patient received another injection of testosterone IM. […] Blackjack was then operated on to treat the fracture.
Monthly injections of testosterone continued. The dosage of testosterone had to be lowered after surgery due to concerns about Blackjack being too active after surgery to repair his fracture and was raised again after healing was complete. During month nine, Blackjack underwent further surgery to remove multiple skin growths.
During month ten Blackjack received an injection of testosterone, returning him to the dosage he received prior to his injury and subsequent surgery. […] During month twelve Blackjack continued receiving testosterone injections, and during month thirteen additional skin growths had to be removed.

[4] = cited from earlier work; for effectiveness when taken orally: oral
[5] = free, non-esterified form; cited from earlier work
[6] = injectable ester; cited from earlier work

## C[C@]12CC[C@H]3[C@@H](CCC4=CC(=O)CC[C@@]43C)[C@@H]1CC[C@@H]2O [testosterone]
[1]; 25 dogs analysed, n=23 improved, monthly testosterone injections, improvement = more mobility and/or energy, less pain medication, less muscle atrophy
  subjects that made improvements after the study protocol: ninety-two
[1]; evaluated at monthly follow-ups, all dogs
  side effects: no side effects were observed
[1]; two of 25 dogs
  dogs whose injection dosages had to be lowered due to becoming too active: 8%
[2]; second month, one week after second IM injection, baseline <40 pg/ml
  testosterone level: 604.80 pg/mL
[2]; third measurement (month three/four) after increased IM dosage
  testosterone level: 1224.50 pg/mL
[2]; male, Cocker Spaniel, dog, blood, intramuscular
  concentration at 4 month: 1.22 ng/mL
[3]; after surgery
  healing of distal humeral lateral condylar fracture while being treated: completely healed from this fracture within two months of surgery
[3]; follow-up one day and two weeks after initial IM injection
  side effects: No side effects were reported
[3]; month eleven
  behaviour leading to dosage decrease: mounting other dogs
[3]; owner interview in week 57 of the protocol
  owner-reported improvements: improvements in Blackjack's ability to jump on furniture, ascend and descend stairs, and rise from sitting and lying positions
[3]; whole course of treatment
  adverse side effects from the treatment: no adverse side effects
[4]
  effectiveness when taken orally: not effective
[5]
  solubility in oil and water: poor solubility in both oil and water

## C[C@]12CC[C@H]3[C@@H](CCC4=CC(=O)CC[C@@]43C)[C@@H]1CC[C@@H]2OC(=O)CCc1ccccc1 [Testosterone phenylpropionate]
[6]
  release time: 1-3 weeks

## CCCCCCC(=O)O[C@H]1CC[C@H]2[C@@H]3CCC4=CC(=O)CC[C@]4(C)[C@H]3CC[C@]12C [Testosterone enanthate]
[6]
  release time: 8 to 10 days

## C[C@]12CC[C@H]3[C@@H](CCC4=CC(=O)CC[C@@]43C)[C@@H]1CC[C@@H]2OC(=O)CCC1CCCC1 [Testosterone cypionate]
[6]
  release time: 8 to 10 days

## CCCCCCCCCCC(=O)O[C@H]1CC[C@H]2[C@@H]3CCC4=CC(=O)CC[C@]4(C)[C@H]3CC[C@]12C [testosterone undecanoate]
[4]
  effectiveness when taken orally: effective when taken orally
[4]; orally administered
  time to elimination from the body: 3 to 4 h

## Testosterone propionate
[6]
  release time: 3 to 4 days
